Test results as given in ChEMBL document CHEMBL5518186, “Discovery of the cereblon-recruiting tubulin PROTACs effective in overcoming Taxol resistance in vitro and in vivo” (Eur J Med Chem, 2024).
Calls of active or inactive are those of the source. The calls are words filed in the database; no cut-off is given here.

How the values were obtained:
[1] = target: T1, Protein cereblon/Tubulin beta-3 chain (Homo sapiens, UniProt Q13509+Q96SW2); assay: Protac activity at CRBN/beta3-tubulin in human A549 cells assessed as reduction in beta3-tubulin level at 0.01 to 1 uM incubated for 48 hrs by immunoblotting analysis; type: cell-based; settings: dose 0.01-1 µM
Target sequence in this assay (Q13509 whole entry, looked up): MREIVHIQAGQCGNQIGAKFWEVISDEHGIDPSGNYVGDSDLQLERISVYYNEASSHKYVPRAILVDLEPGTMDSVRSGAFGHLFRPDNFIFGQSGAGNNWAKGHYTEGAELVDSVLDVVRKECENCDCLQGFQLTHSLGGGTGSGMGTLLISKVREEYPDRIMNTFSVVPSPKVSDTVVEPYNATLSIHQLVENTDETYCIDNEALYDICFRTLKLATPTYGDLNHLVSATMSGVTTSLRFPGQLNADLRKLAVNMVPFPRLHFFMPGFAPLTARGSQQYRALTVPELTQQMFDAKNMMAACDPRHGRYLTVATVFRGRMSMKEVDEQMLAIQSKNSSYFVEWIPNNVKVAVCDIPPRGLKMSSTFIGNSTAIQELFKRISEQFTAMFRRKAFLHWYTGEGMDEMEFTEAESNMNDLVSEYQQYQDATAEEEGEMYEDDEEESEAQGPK
Target sequence in this assay (Q96SW2 whole entry, looked up): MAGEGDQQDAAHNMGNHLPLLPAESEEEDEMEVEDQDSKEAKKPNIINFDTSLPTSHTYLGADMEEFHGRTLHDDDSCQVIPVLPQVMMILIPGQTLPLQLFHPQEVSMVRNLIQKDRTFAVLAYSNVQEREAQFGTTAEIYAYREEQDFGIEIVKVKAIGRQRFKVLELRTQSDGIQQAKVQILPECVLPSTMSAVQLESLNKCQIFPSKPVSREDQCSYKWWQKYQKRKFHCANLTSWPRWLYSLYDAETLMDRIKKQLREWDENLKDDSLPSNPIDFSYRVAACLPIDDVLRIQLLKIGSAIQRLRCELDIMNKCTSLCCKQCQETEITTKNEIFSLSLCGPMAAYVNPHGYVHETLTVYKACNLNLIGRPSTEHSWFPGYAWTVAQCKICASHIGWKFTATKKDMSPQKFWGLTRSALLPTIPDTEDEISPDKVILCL

[2] = target: T1, Protein cereblon/Tubulin beta-3 chain; assay: Protac activity at CRBN/beta3-tubulin in human A549 cells assessed as reduction in beta3-tubulin level incubated for 48 hrs by immunoblotting analysis; type: cell-based
[3] = target: T2, Protein cereblon/Tubulin beta (Homo sapiens) (UniProt P68371+Q9H4B7+Q13509+P04350+Q3ZCM7+P07437+Q13885+Q9BVA1+Q9BUF5+Q96SW2+A6NNZ2); assay: (§1) Protac activity at CRBN/beta-tubulin in human A549/Taxol cells assessed as reduction in beta-tubulin level incubated for 48 hrs by immunoblotting analysis; type: cell-based
[4] = target: Protein cereblon/Tubulin beta; assay: as §1; type: cell-based
[5] = target: T1, Protein cereblon/Tubulin beta-3 chain; assay: Protac activity at CRBN/beta3-tubulin in human A549/Taxol cells assessed as reduction in beta3-tubulin level incubated for 48 hrs by immunoblotting analysis; type: cell-based
[6] = target: T3, Protein cereblon-alpha tubulin (Homo sapiens) (UniProt P0DPH7+P68366+Q71U36+P68363+Q9BQE3+Q6PEY2+A6NHL2+Q9NY65+Q96SW2); assay: Protac activity at CRBN/alpha-tubulin in human HeLa cells assessed as reduction in alpha-tubulin level at 10 to 1000 nM incubated for 48 hrs by immunoblotting analysis; type: cell-based; settings: dose 10-1000 nM
[7] = target: T1, Protein cereblon/Tubulin beta-3 chain; assay: Protac activity at CRBN/beta3-tubulin in human HeLa cells assessed as reduction in beta3-tubulin level at 10 to 1000 nM incubated for 48 hrs by immunoblotting analysis; type: cell-based; settings: dose 10-1000 nM
Target sequence in this assay (Q13509 whole entry, looked up): as the sequence (Q13509 whole entry, looked up) above
Target sequence in this assay (Q96SW2 whole entry, looked up): as the sequence (Q96SW2 whole entry, looked up) above

[8] = target: T1, Protein cereblon/Tubulin beta-3 chain; assay: Protac activity at CRBN/beta3-tubulin in human MCF7 cells assessed as reduction in beta3-tubulin level at 10 to 1000 nM incubated for 48 hrs by immunoblotting analysis; type: cell-based; settings: dose 10-1000 nM
Target sequence in this assay (Q13509 whole entry, looked up): as the sequence (Q13509 whole entry, looked up) above
Target sequence in this assay (Q96SW2 whole entry, looked up): as the sequence (Q96SW2 whole entry, looked up) above

[9] = target: T3, Protein cereblon-alpha tubulin (Homo sapiens); assay: Protac activity at CRBN/alpha-tubulin in human A549 cells assessed as reduction in alpha-tubulin level at 0.25 uM by immunoblotting analysis; type: cell-based; settings: time 6-72 hrs, TDE = time-dependent effect
[10] = target: T2, Protein cereblon/Tubulin beta (Homo sapiens); assay: Protac activity at CRBN/beta-tubulin in human A549 cells assessed as reduction in beta-tubulin level at 0.25 uM pretreated for 48 hrs followed by compound washout and measured upto 12 hrs by immunoblotting analysis; type: cell-based
[11] = target: T3, Protein cereblon-alpha tubulin (Homo sapiens); assay: Protac activity at CRBN/alpha-tubulin in human A549 cells assessed as reduction in alpha-tubulin level at 0.25 uM pretreated with MG-132 followed by compound addition and measured after 24 hrs by immunoblotting analysis; type: cell-based
[12] = target: T1, Protein cereblon/Tubulin beta-3 chain; assay: Protac activity at CRBN/beta3-tubulin in human A549 cells assessed as reduction in beta3-tubulin level at 0.25 uM pretreated with MG-132 followed by compound addition and measured after 24 hrs by immunoblotting analysis; type: cell-based
Target sequence in this assay (Q13509 whole entry, looked up): as the sequence (Q13509 whole entry, looked up) above
Target sequence in this assay (Q96SW2 whole entry, looked up): as the sequence (Q96SW2 whole entry, looked up) above

[13] = target: T1, Protein cereblon/Tubulin beta-3 chain; assay: Protac activity at CRBN/beta3-tubulin in human A549 cells assessed as reduction in beta3-tubulin level at 0.25 uM pretreated with pomalidomide for 2 hrs followed by compound addition and measured after 24 hrs by immunoblotting analysis; type: cell-based
Target sequence in this assay (Q13509 whole entry, looked up): as the sequence (Q13509 whole entry, looked up) above
Target sequence in this assay (Q96SW2 whole entry, looked up): as the sequence (Q96SW2 whole entry, looked up) above

[14] = target: T2, Protein cereblon/Tubulin beta (Homo sapiens); assay: Protac activity at CRBN/beta-tubulin in human A549 cells assessed as reduction in beta-tubulin level at 0.25 uM pretreated with CA-4 for 2 hrs followed by compound addition and measured after 24 hrs by immunoblotting analysis; type: cell-based
[15] = target: T1, Protein cereblon/Tubulin beta-3 chain; assay: Protac activity at CRBN/beta3-tubulin in human A549 cells assessed as reduction in beta3-tubulin level at 0.25 uM pretreated with CA-4 for 2 hrs followed by compound addition and measured after 24 hrs by immunoblotting analysis; type: cell-based
Target sequence in this assay (Q13509 whole entry, looked up): as the sequence (Q13509 whole entry, looked up) above
Target sequence in this assay (Q96SW2 whole entry, looked up): as the sequence (Q96SW2 whole entry, looked up) above

[16] = target: T1, Protein cereblon/Tubulin beta-3 chain; assay: Protac activity at CRBN/beta3-tubulin in human A549/Taxol cells assessed as reduction in beta3-tubulin level at 0.25 uM pretreated with MG-132 followed by compound addition and measured after 48 hrs by immunoblotting analysis; type: cell-based
[17] = target: T3, Protein cereblon-alpha tubulin (Homo sapiens); assay: Protac activity at CRBN/alpha-tubulin in human A549/Taxol cells assessed as reduction in alpha-tubulin level at 0.25 uM pretreated with pomalidomide for 2 hrs followed by compound addition and measured after 48 hrs by immunoblotting analysis; type: cell-based
[18] = target: T2, Protein cereblon/Tubulin beta (Homo sapiens); assay: Protac activity at CRBN/beta-tubulin in human A549/Taxol cells assessed as reduction in beta-tubulin level at 0.25 uM pretreated with pomalidomide for 2 hrs followed by compound addition and measured after 48 hrs by immunoblotting analysis; type: cell-based
[19] = target: T1, Protein cereblon/Tubulin beta-3 chain; assay: Protac activity at CRBN/beta3-tubulin in human A549/Taxol cells assessed as reduction in beta3-tubulin level at 0.25 uM pretreated with pomalidomide for 2 hrs followed by compound addition and measured after 48 hrs by immunoblotting analysis; type: cell-based
[20] = target: T2, Protein cereblon/Tubulin beta (Homo sapiens); assay: Protac activity at CRBN/beta-tubulin in human A549/Taxol cells assessed as reduction in beta-tubulin level at 0.25 uM pretreated with CA-4 for 2 hrs followed by compound addition and measured after 48 hrs by immunoblotting analysis; type: cell-based
[21] = target: T1, Protein cereblon/Tubulin beta-3 chain; assay: Protac activity at CRBN/beta3-tubulin in human A549/Taxol cells assessed as reduction in beta3-tubulin level at 0.25 uM pretreated with CA-4 for 2 hrs followed by compound addition and measured after 48 hrs by immunoblotting analysis; type: cell-based
[22] = tested on: A549; assay: Inhibition of cell growth in human A549 cells incubated for 72 hrs by SRB method; type: functional, cell-based
[23] = Resistance index, ratio of IC50 for human MCF7/Taxol cells to IC50 for human MCF7 cells; type: functional
[24] = tested on: A549/TR; assay: Inhibition of colony formation in human A549/Taxol cells incubated for 24 hrs followed by media replacement at every 3 days for 14 days by crystal violet staining based assay; type: functional, cell-based; settings: dose 2-50 nM, time 14.0 day
[25] = tested on: A549; assay: Induction of cell cycle arrest in human A549 cells assessed as accumulation of cells at G2/M phase at 0.002 uM incubated for 24 hrs by PI staining based flow cytometry analysis (reference value: 31.86%); type: functional
[26] = tested on: A549; assay: Induction of cell cycle arrest in human A549 cells assessed as accumulation of cells at G2/M phase at 0.01 uM incubated for 24 hrs by PI staining based flow cytometry analysis (reference value: 31.86%); type: functional
[27] = tested on: A549/TR; assay: Induction of cell cycle arrest in human A549/Taxol cells assessed as accumulation of cells at S phase at 0.01 uM incubated for 24 hrs by PI staining based flow cytometry analysis (reference value: 2.85%); type: functional
[28] = tested on: A549/TR; assay: Induction of cell cycle arrest in human A549/Taxol cells assessed as accumulation of cells at S phase at 0.05 uM incubated for 24 hrs by PI staining based flow cytometry analysis (reference value: 2.85%); type: functional
[29] = tested on: A549/TR; assay: Induction of apoptosis in human A549/Taxol cells at 0.05 uM incubated for 48 hrs by Annexin V-FITC/PI staining based flow cytometry analysis; type: functional
[30] = tested on: HUVEC; assay: Antiangiogenic activity in HUVECs assessed as reduction in tube area at 2.5 nM incubated for 6 to 8 hrs by inverted microscopic analysis; type: functional, cell-based; settings: Homo sapiens, time 6-8 hrs
[31] = Toxicity in nude mouse xenografted with human A549 cells assessed as body weight loss at 15 mg/kg, ip administered once every 2 days for 23 days and measured every 3 days; type: organism-based; settings: in vivo, 552 h, time 23 day
[32] = tested on: HepG2; assay: Inhibition of DNA synthesis in human HepG2 cells; type: functional, cell-based

In the case of COc1ccc(/C=C\c2cc(OC)c(OC)c(OC)c2)cc1OC(=O)CCCNc1cccc2c1C(=O)N(C1CCC(=O)NC1=O)C2=O (stereo not given), the Activity [1] is reported as “Active”, the Activity [2] is reported as “Dose-Dependent Effect” and the DC50 [2] is reported as 0.251 µM. For the same compound, the Activity [3] was “Dose-Dependent Effect”, the DC50 [4] was 0.972 µM and the Activity [5] was “Dose-Dependent Effect”. For the same compound, the DC50 [5] was 0.005 µM, the Activity [6] was “Active” and the Activity [7] was “Active”. For the same compound, the Activity [8] was “Active”, the Activity [9] was “Tde” and the Activity [10] was “Active”. The Activity [11] was “inactive”, the Activity [12] was “inactive” and the Activity [13] was “inactive”. The Activity [14] was “inactive”, the Activity [15] was “inactive” and the Activity [16] was “inactive”. For the same compound, the Activity [17] was “inactive”, the Activity [18] was “inactive” and the Activity [19] was “inactive”. The Activity [20] was “inactive”, the Activity [21] was “inactive” and the inhibition [22] was “Dose-Dependent Effect”. The IC50 ([22]; A549, 72 h) was 0.01 µM, the “Ratio IC50” value [23] was 0.5 and the inhibition [24] was “Dose-Dependent Effect”. The Activity [25] was 37.03%, the Activity [26] was 68.36% and the Activity [27] was 10.77%. For the same compound, the Activity [28] was 3.85%, the Activity [29] was 36.2% and the Activity [30] was “Active”. The Activity [31] was “Non-Toxic” and the inhibition [32] was “Dose-Dependent Effect”.
